“Also recorded” adds a separate entry of the source.
How the values were obtained:
[1] = biological target: MRCKα (Homo sapiens (Human), UniProt Q5VT25); assay: MRCKα kinase assay (IMAP fluorescence polarization); type: biochemical; details: 1 μM ATP; read-out: MRCK-a Average Ki
Text: (§1) MRCKα, MRCKβ, ROCK1 and ROCK2 Kinase Assays

[2] = Skin and blood compound concentrations after topical application to FVB mice
Experimental: (§2) Mice were culled 2 hours after final treatment. […] Mice were culled 2 hours, 4 hours, 8 hours or 24 hours after final treatment.
(§3) For DMBA/TPA experiments, 40 FVB mice were treated topically with 25 μg DMBA in acetone on day 1. From day 5, 4.7 μg TPA in acetone was applied 3 times weekly. […] Experimenters were fully blinded to the identity of treatment groups. Mice weights and general conditions were monitored at least 2 times per week, tumor sizes and numbers were recorded weekly. Mice were culled when papillomas reached 12 mm in diameter. Analysis of tumor volume and papilloma numbers were performed blinded to the identity of treatment groups.

[3] = biological target: T1, ROCK1 (Homo sapiens (Human), UniProt Q13464); assay: ROCK1 cellular assay (pMLC T18/S19 immunoblot, MDA-MB-231 cells with doxycycline inducible kinase domain); type: cell-based; details: MDA-MB-231 cells, doxycycline inducible kinase domain, 60 minutes, pMLC (T18/S19); read-out: Cellular assay - ROCK1 inhibition MEAN
T1 sequence (Q13464 2-1354 limits assumed): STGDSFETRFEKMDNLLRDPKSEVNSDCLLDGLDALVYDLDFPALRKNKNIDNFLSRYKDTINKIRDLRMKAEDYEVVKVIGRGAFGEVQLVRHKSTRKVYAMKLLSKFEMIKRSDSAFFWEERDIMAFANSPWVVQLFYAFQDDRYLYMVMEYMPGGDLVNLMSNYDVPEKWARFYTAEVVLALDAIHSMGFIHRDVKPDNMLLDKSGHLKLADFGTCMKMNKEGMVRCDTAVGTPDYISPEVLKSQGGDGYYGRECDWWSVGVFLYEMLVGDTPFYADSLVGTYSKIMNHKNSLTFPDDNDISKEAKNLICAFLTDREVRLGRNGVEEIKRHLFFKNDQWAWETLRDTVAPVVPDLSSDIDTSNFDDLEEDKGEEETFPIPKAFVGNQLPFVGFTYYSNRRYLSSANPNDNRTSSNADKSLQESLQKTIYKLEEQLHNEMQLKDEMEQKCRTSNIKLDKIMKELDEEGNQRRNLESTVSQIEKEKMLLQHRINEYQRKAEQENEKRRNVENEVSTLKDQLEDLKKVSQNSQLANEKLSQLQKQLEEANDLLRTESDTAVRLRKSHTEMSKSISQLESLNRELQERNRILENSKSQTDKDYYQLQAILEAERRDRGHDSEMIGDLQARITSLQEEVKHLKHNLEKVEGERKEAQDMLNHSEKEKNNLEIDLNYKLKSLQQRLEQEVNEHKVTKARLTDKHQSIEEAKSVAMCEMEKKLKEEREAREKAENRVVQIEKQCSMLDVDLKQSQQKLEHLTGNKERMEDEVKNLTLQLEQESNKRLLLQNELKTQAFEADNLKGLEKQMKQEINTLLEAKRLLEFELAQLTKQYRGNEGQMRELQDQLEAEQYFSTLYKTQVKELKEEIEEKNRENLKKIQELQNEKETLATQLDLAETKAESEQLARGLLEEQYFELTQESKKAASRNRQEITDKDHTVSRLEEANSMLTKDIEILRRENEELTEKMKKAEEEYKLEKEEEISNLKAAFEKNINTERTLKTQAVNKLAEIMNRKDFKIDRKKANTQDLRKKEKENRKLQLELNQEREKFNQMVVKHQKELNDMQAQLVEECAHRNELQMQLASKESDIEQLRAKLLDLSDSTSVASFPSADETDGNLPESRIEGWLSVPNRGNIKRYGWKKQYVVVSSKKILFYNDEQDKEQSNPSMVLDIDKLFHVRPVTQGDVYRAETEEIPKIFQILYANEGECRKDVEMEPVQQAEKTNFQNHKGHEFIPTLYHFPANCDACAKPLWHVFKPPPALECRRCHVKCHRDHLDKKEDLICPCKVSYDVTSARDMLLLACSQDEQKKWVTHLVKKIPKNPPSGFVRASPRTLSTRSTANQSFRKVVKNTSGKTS
Experimental: MRCKβ, ROCK1 and ROCK2 Cellular Assays
MDA-MB-231 cells expressing doxycycline inducible ROCK1, ROCK2 or MRCKβ kinase domains were plated at 1.1×10^5 cells per well of a 12 well plate. After 24 hours, cells were treated with 1 μg/ml doxycycline for 18 hours to induce kinase domain expression and then tested over a suitable concentration range with compounds of the invention for 60 minutes. Cells were then washed with PBS and lysed with Tris-SDS lysis Buffer (50 mM Tris-HCl pH7.4, 0.5% (v/v) SDS, 1×PhosStop Inhibitors (04 906 837 001; Roche) and 1×Complete Protease Inhibitors (04 693 124 001; Roche)). Whole cell lysates were clarified by passing through QIAshredder spin columns, separated by SDS-PAGE, and quantitative immunoblotting performed using a LI-COR Odyssey IR scanner to determine pMLC (T18/S19) and α-Tubulin levels.

[4] = PK analysis in mice bearing intracranial U87MG or G7 tumours, subcutaneous dosing; type: in vivo, mouse
Experimental: (§4) Female CD1 nude mice were orthotopically injected with 1×10^5 G7 or U87MG cells into the subventricular zone as previously described (16, 17). Tumours were allowed to establish for before magnetic resonance imaging (MRI) to confirm presence of tumour. Radiation treatments were conducted using an XSrtahl Small Animal Radiation Research Platform (SARRP). […] Tumours were sub-dissected and fresh frozen specimens sent for PK analysis (Vertex, UK). Formalin fixed, paraffin embedded sections were stained for Ki67, HLA or phosphoMYPT1 then scanned using a Hamamatsu Nanozoomer Slide scanning machine with Leica SlidePath Slide imaging software. Algorithms were optimised for each stain individually and automated, quantitative analysis undertaken. The defining of contralateral regions was performed blinded.
(§5) Tumours were sub-dissected from normal brain tissue and analysed by mass spectrometry to determine total compound levels (‘Total’). […] G7 intracranial tumours were allowed to establish for 12 weeks before initiation of treatment. The study was randomised and blinded. […] (D) Brain sections were stained by IHC for pMYPT1 levels (i). Levels of nuclear and cytoplasmic pMYPT1 were quantified by automated analysis using SlidePath. Statistical analysis: two tailed, unpaired t test. *p<0.05.

[5] = test system: E2 cells; assay: Ex vivo migration assay of irradiated GBM cells on murine brain slices; type: cell-based, human; details: 100 nM, 2 Gy
Experimental: (§6) Cells were irradiated using an Xstrahl RX225 radiation cabinet (195 kV X-rays, dose rate 1.39 Gy/minute). For sub confluent migration assays, 2×10^5 cells per well were plated at in 6 well dishes and migration imaged by timelapse microscopy capturing images every 15 mins. Migration velocity was calculated using single cell tracking via ImageJ analysis. For ex vivo migration assays, cell were seeded onto fresh 1 mm coronal brain slices obtained from 6-8 week old C57BL/6 mice in culture medium (described above) and allowed to establish overnight with incubation at 37° C., 5% CO2. Brain slices were then inverted onto Lumox 35 mm dishes (8 μm, Sarstedt) and secured with Nuclepore Track-Etch membrane (Whatman) sealed with Matrigel. Migration was captured via confocal timelapse microscopy with images taken every 15 mins. Migration velocity was calculated using single cell tracking via ImageJ analysis.
(§7) (B) Treated cells were exposed to 0 Gy or 2 Gy and imaged in a sub-confluent migration assay. Cell speed was measured by single cell tracking. […] Data from 3 biological replicates. (D) Fluorescently labelled E2 cells were exposed to 0 Gy or 2 Gy radiation and seeded onto fresh murine brain slices. […] Data from 3 biological replicates. […] Baseline value of 34% was calculated from the average of 10 non-motile, non-irradiated cells. […]

[6] = test system: G7 intracranial tumours; assay: Survival of mice bearing G7 intracranial GBM tumours; type: in vivo, mouse
Experimental: Female CD1 nude mice were orthotopically injected with 1×10^5 G7 or U87MG cells into the subventricular zone as previously described (16, 17). Tumours were allowed to establish […] magnetic resonance imaging (MRI) to confirm presence of tumour. Radiation treatments were conducted using an XSrtahl Small Animal Radiation Research Platform (SARRP). 5 mg/kg BDP-9066 or vehicle (20% propylene glycol/80% PBS) was given subcutaneously twice daily or at stated time before cull for PK analysis. Tumours were sub-dissected and fresh frozen specimens sent for PK analysis (Vertex, UK). Formalin fixed, paraffin embedded sections were stained for Ki67, HLA or phosphoMYPT1 then scanned using a Hamamatsu Nanozoomer Slide scanning machine with Leica SlidePath Slide imaging software. Algorithms were optimised for each stain individually and automated, quantitative analysis undertaken. The defining of contralateral regions was performed blinded.
FIG. 6. […] (A) Outline of experiment to measure in vivo survival to BDP-9066 treatment. G7 intracranial tumours were allowed to establish for 10 weeks before initiation of treatment. Mice in the RT cohorts received 6×2 Gy whole brain RT over the course of two weeks. Only mice that were culled after the first 3 fractions of RT were included in the analysis to allow for any treatment benefit to take effect. The study was randomised, blinded and the mice stratified across the cohorts based on starting tumour size as assessed by T2 MRI. (B) Kaplan-Meier plot showing survival data. N.S.=not significant, *<p 0.05, **p<0.005. Statistical analysis: Log-rank (Mantel-Cox) test.
Pharmacological inhibition of MRCK when combined with radiotherapy confers a significant survival benefit to intracranial GBM tumour bearing mice. G7 intracranial tumours were established in four cohorts of mice: vehicle, BDP-9066, RT+vehicle and RT+BDP-9066 (FIG. 6A) and the 4 week treatment schedule outlined in FIG. 6A was commenced at 10 weeks post tumour cell injection. The experiment was terminated at 104 days after a final T2 MRI on the remaining mice.

[7] = test system: G7 and E2 cells; assay: Clonogenic survival assay with irradiation; type: cell-based, human; details: 100 nM, G7 or E2 cells
Text: (§8) FIG. 4. […] N.S.=not significant. […] Cells were imaged using an Operetta high-throughput imaging platform. Red: actin, blue: DAPI, Scale bar: 100 μm. Automated image analysis was undertaken to quantify changes in neurite morphology. Data from >1000 cells.

[8] = biological target: ROCK2 (Homo sapiens (Human), UniProt O75116); assay: ROCK2 kinase assay (IMAP fluorescence polarization); type: biochemical; details: 1 μM ATP; read-out: ROCK2 Average Ki
Chain of ROCK2 (O75116 whole entry): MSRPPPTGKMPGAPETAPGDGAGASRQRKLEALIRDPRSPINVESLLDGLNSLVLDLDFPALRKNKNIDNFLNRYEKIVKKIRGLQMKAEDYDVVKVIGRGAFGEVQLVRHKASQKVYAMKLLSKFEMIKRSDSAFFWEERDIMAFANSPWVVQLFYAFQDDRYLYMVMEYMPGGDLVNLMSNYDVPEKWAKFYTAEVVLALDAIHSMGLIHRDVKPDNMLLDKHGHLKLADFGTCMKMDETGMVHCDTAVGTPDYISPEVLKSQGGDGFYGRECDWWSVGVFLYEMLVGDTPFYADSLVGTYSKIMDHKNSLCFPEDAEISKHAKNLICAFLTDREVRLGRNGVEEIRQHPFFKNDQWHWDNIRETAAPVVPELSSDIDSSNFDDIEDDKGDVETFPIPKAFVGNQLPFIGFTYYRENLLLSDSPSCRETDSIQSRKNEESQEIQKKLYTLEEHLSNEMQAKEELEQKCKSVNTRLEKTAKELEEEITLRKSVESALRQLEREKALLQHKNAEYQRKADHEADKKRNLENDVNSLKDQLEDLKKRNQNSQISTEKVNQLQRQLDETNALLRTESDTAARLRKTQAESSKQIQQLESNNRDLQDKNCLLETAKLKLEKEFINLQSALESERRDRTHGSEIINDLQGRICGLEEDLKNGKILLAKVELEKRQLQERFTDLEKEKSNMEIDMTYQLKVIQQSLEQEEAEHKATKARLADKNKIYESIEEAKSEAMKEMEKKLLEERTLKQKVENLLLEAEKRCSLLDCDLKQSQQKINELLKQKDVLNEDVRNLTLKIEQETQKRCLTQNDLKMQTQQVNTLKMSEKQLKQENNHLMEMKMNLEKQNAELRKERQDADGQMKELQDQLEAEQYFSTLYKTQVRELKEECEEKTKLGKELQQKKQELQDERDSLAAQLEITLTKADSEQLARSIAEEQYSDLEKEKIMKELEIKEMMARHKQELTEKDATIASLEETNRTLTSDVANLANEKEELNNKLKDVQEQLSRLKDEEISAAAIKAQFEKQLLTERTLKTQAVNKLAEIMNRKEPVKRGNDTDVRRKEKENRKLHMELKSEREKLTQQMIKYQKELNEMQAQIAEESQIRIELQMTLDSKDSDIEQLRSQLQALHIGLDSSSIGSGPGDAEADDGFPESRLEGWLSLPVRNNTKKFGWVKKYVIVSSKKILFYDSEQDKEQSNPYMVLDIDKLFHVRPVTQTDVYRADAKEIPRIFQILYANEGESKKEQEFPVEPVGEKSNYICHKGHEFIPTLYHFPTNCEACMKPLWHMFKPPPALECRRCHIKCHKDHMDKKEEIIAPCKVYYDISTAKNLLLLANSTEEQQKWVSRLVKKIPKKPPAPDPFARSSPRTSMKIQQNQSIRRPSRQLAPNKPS
Experimental: MRCKα, MRCKβ, ROCK1 and ROCK2 assays were performed using an IMAP fluorescence polarization assay format (Molecular Devices Inc.). 8-12 nM of each kinase (Life Technologies) was incubated for 60 min at room temperature with 100 nM FAM-S6-ribosomal protein derived peptide (synthesized by Alta Biosciences, University of Birmingham UK) in the presence of 1 μM ATP and 0.5 mM MgCl2 in 20 mM Tris buffer (pH 7.4) containing 0.01% Tween-20 and 1 mM DTT (MRCKα and β); or 1 μM ATP, 10 mM MgCl2 in 20 mM Tris buffer (pH 7.5) containing 0.25 mM EGTA 0.01% Triton X-100 and 1 mM DTT (ROCK1 and ROCK2). Typically, dose response analyses were performed over concentration ranges from 0.005-100 μM. Reactions were stopped by adding 2 assay volumes of 0.25% (v/v) IMAP binding reagent in 1×IMAP binding buffer A (Molecular Devices). After 30 min incubation to allow binding reagent to bind phosphorylated peptide, fluorescence polarization was measured on a Tecan Saphire^2 plate reader at excitation (470 nm) and emission (530 nm) wavelengths.

[9] = test system: E2 and G7 cells; assay: Sub confluent migration assay of irradiated GBM cells (timelapse, single cell tracking); type: cell-based, human; details: 2 Gy
Experimental: as §6, §7

[10] = test system: pMYPT1; assay: pMYPT1 IHC of brain sections from mice bearing G7 intracranial tumours; type: in vivo, mouse; details: 3×2 Gy whole brain RT + 5 mg/kg twice daily for 10 days; listed as BDP-9066
Experimental: as §4, §5

[11] = test system: E2 cells; assay: Neurite morphology, automated image analysis; type: cell-based, human; details: cells treated with irradiation
Text: as §8

[12] = biological target: T2, MRCKβ (Homo sapiens (Human), UniProt Q9Y5S2); assay: MRCKβ kinase assay (IMAP fluorescence polarization); type: biochemical; details: 1 μM ATP; read-out: MRCK-B Average Ki
Text: as §1

[13] = biological target: T2, MRCKβ; assay: MRCKβ cellular assay (pMLC T18/S19 immunoblot, MDA-MB-231 cells with doxycycline inducible kinase domain); type: cell-based; details: MDA-MB-231 cells, doxycycline inducible kinase domain, 60 minutes, pMLC (T18/S19); read-out: Cellular assay - MRCK-b inhibition MEAN
Procedure, shortened: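 Kinase domain expression in MDA-MB-231 cells induced with 1 μg/ml doxycycline for 18 h, then compounds applied over a concentration range for 60 min. Lysates resolved by SDS-PAGE; pMLC (T18/S19) and α-tubulin measured by quantitative IR immunoblotting.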

[14] = Plasma protein binding; type: in vitro ADME
[15] = test system: DMBA/TPA skin papillomas; assay: DMBA/TPA mouse model of squamous cell carcinoma, topical treatment; type: in vivo; details: topical 25 μg 5 times per week for 14 weeks, vs DMSO
Experimental: as §3

[16] = test system: MRCKα pS1003; assay: MRCKα pS1003 immunohistochemical staining of topically treated mouse skin and papillomas; details: vs DMSO
Experimental: as §2, §3

[17] = biological target: T1, ROCK1; assay: biochemical
Experimental: MRCKα, MRCKβ, ROCK1 and ROCK2 assays were performed using an IMAP fluorescence polarization assay format (Molecular Devices Inc.). […] Typically, dose response analyses were performed over concentration ranges from 0.005-100 μM. […] After 30 min incubation to allow binding reagent to bind phosphorylated peptide, fluorescence polarization was measured on a Tecan Saphire^2 plate reader at excitation (470 nm) and emission (530 nm) wavelengths.

[18] = test system: G7 cells; assay: Cell viability assay; type: cell-based, human
Text: as §8

[19] = biological target: kinase targets listed in tables 3 and 4 (Homo sapiens, UniProt Q9Y5S2); assay: biochemical
Chain of kinase targets listed in tables 3 and 4 (Homo sapiens, UniProt Q9Y5S2) (Q9Y5S2 whole entry, looked up): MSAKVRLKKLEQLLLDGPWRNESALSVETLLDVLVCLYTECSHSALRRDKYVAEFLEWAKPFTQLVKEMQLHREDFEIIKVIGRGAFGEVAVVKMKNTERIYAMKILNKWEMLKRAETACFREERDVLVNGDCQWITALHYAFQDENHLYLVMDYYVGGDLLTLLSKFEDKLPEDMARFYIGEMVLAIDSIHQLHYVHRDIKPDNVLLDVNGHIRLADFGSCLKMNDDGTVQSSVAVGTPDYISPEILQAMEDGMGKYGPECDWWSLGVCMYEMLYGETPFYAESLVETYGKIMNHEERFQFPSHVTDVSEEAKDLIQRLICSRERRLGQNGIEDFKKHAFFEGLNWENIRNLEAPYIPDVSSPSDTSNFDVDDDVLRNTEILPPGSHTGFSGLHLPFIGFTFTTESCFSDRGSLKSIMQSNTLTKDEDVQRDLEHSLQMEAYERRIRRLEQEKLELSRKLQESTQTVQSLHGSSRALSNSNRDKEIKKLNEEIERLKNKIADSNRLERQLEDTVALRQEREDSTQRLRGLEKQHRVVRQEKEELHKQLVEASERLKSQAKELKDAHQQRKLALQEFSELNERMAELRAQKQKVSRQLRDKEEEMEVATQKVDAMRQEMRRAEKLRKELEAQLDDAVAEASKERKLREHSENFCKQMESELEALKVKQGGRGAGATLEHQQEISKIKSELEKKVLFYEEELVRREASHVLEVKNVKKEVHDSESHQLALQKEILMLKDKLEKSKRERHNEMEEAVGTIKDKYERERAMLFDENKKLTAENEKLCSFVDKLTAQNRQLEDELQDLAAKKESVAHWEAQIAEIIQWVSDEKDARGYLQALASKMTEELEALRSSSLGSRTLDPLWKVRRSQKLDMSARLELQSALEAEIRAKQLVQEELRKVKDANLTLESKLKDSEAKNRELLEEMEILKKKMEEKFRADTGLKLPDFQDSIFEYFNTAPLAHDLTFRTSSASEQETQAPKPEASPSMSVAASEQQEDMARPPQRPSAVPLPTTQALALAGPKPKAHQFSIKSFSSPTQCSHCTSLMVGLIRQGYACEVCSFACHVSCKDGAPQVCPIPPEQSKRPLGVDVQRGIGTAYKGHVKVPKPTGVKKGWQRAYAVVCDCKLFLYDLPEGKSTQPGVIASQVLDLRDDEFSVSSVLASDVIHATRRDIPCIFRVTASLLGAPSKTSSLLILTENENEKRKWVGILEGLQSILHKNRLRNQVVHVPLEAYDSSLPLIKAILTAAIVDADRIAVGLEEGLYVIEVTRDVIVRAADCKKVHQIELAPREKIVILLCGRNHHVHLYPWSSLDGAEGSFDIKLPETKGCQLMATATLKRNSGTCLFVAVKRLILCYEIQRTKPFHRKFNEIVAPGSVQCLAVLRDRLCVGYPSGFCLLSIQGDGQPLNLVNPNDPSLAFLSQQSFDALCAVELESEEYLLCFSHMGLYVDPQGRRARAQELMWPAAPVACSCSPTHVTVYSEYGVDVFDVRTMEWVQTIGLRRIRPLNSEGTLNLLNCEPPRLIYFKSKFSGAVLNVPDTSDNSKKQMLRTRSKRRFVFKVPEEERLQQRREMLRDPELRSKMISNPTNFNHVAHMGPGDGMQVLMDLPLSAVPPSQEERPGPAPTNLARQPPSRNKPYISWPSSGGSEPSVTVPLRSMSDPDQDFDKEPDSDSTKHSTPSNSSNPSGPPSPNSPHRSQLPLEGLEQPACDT

[20] = biological target: kinase targets listed in tables 3 and 4 (Homo sapiens, UniProt Q13464); assay: biochemical
Chain of kinase targets listed in tables 3 and 4 (Homo sapiens, UniProt Q13464) (Q13464 2-1354 limits assumed): as the sequence (Q13464 2-1354 limits assumed) above

[21] = biological target: kinase targets listed in tables 3 and 4 (Homo sapiens, UniProt Q9BXA7); assay: biochemical
Chain of kinase targets listed in tables 3 and 4 (Homo sapiens, UniProt Q9BXA7) (Q9BXA7 whole entry, looked up): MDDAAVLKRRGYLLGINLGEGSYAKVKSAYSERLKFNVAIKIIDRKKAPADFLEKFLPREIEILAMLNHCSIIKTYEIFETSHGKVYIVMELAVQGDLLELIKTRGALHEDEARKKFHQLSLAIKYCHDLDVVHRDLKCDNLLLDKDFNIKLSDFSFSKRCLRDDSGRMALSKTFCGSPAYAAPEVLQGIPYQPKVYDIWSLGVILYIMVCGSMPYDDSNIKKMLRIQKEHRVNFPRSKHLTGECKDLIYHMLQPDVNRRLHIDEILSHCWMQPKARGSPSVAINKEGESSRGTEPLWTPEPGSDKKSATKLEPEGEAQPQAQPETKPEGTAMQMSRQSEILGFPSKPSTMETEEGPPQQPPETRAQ

[22] = test system: pMLC2; assay: pMLC2 immunofluorescence, Operetta high-throughput imaging; type: cell-based, human
Text: Cells were imaged using an Operetta high-throughput imaging platform. Green: pMLC2; yellow: actin; red: whole cell dye; blue: DAPI; Scale bar: 100 μm. (ii) Automated image analysis was undertaken to compare pMLC2 levels in control and irradiated cells. Data are derived from two biological repeats, each analysing >400 cells per condition.
Cells were imaged using an Operetta high-throughput imaging platform. Automated image analysis was used to compare pMLC2 levels. Data from two biological repeats with >400 cells per condition per biological replicate. Data plotted as a percentage of vehicle. […] Cells were imaged using an Operetta high-throughput imaging platform.

[23] = FVB, mouse, skin, topical, 25 μg

Q: What does the source list for `c1cc(-c2c[nH]c3nccc(N4CCC[C@@]5(CCCCN5)C4)c23)ncn1` [Example E117, (6S)-8-(3-pyrimidin-4-yl-1H-pyrrolo[2,3-b]pyridin-4-yl)-1,8-diazaspiro[5.5]undecane]?
A: Ki [1]: 0.0136 nM; compound in blood at experimental endpoint ([2]; DMBA/TPA FVB mice, topical 25 μg 5 times per week for 14 weeks): no detectable levels; also recorded: undetectable; concentration at 2 h ([2]; FVB, mouse, blood, topical, 25 μg): 0.04 µM; concentration at 14 weeks [2, 23]: > 1 µM; concentration at 2 h [2, 23]: 26 µM; concentration at 24 h [2, 23]: > 16 µM; clearance in the blood ([2]; by deactivation and/or metabolism): rapid clearance; drug levels in the skin compared with blood ([2]; topical 4×25 μg over 2 days, dorsal skin): significantly higher than in blood; mean concentration in the skin ([2]; topical administration, DMBA/TPA experiment): greater than 1 micromolar; level in blood 24 hours after final dosing ([2]; topical single 25 μg or 8×25 μg (4 days on, 2 off, 4 on)): undetectable; compound accumulation on repeated dosing ([2]; topical, repeated 25 μg vs single 10 μg): less than additive; IC50 [3]: 10600 nM; penetration of intracranial tumours ([4]; 5 mg/Kg subcutaneous, 30 mins prior to cull, U87MG and G7 tumours, listed as BDP-9066): penetrates intracranial GBM xenografts; also recorded: penetrated intracranial tumours; presence in blood at the time of culling ([4]; 5 mg/kg subcutaneous twice daily for 10 days): micromolar concentrations; bioavailability ([4]; PK profile, data not shown): good bioavailability; clearance ([4]; PK profile, data not shown): rapid clearance; exposure in the brain, contralateral hemisphere ([4]; sub-cutaneous dosing, absence of significant tumour burden): very low exposure; radiation driven ex vivo brain slice invasion [5]: fully oppose; survival, combined with RT vs untreated cohort ([6]; 6×2 Gy whole brain RT, p=0.0007, listed as BDP-9066): significant survival advantage; also recorded: highly significant increase in survival; survival, combined with RT vs radiation alone ([6]; 6×2 Gy whole brain RT, p=0.0459): significantly above; survival, compound alone ([6]; vs untreated cohort): no significant survival benefit; radiation sensitivity measured by clonogenic survival [7]: no impact; Ki [8]: 5.38 nM; radiation driven sub confluent migration ([9]; 100 nM, G7 and E2 cells): fully oppose; cell speed of irradiated GBM cells ([9]; increasing concentrations, E2 and G7 cells): robust dose response; radiation driven MYPT1 phosphorylation [10]: inhibits; also recorded: opposes; response in morphological assay (neurites) [11]: robust dose dependent response; Ki [12]: 0.0233 nM; IC50 [13]: 28.3 nM; PPB free value [14]: 72.7%; fraction unbound ([14]; plasma): 0.727; average papilloma volume per mouse [15]: significantly reduced; skin papilloma appearance at study end [15]: appeared visually smaller; total papilloma numbers per mouse [15]: not different; total tumor volume per mouse [15]: significantly reduced; MRCKα pS1003 cytoplasmic histoscores in papillomas ([16]; DMBA/TPA mice, topical 25 μg): reduced histoscores; MRCKα pS1003 cytoplasmic histoscores in the treated skin area ([16]; DMBA/TPA mice, topical 25 μg): reduced histoscores; MRCKα pS1003 immunohistochemistry staining ([16]; DMBA/TPA treated skin, topical 25 μg): significant decreases; epidermal MRCKα pS1003 positive staining ([16]; topical 4×25 μg over 2 days, FVB mouse skin): significant reduction; also recorded: significantly reduced; Ki [17]: 18.4 nM; cell viability at higher concentrations ([18]; higher concentrations, likely off target toxicity): loss of cell viability; cell viability ([18]; sub-micromolar levels / anti-invasive concentrations, G7 cells, listed as BDP-9066): does not affect cell survival; also recorded: No effect; IC50 [19]: 8.3 nM; Ki [19]: 1.38 nM; IC50 [20]: 141 nM; Ki [20]: 54 nM; IC50 [21]: 287 nM; Ki [21]: 136 nM; IC50 ([22]; Homo sapiens, light or radiation study, irradiated G7 and E2 cells): 56 nM; response in biomarker assay (pMLC2) ([22]; cells treated with irradiation): robust dose dependent response

Source: patent US11447505B1, “Pyrrolo[2,3-b]pyridine compounds and their use in the treatment of cancer” (priority 2017, dated 2022)
